# Laboratory results from patent US20230093861A1, “RAPAMYCIN ANALOGS AS MTOR INHIBITORS” (Revolution Medicines, Inc., priority 2017, published 2023).
# Like-named read-outs stand apart in the source and are kept apart here.
# Legend:
# P-P70S6K (T389) = test: Cell based AlphaLISA assay, inhibition of P-P70S6K (T389) (mTORC1 substrate phosphorylation) in MDA-MB-468 cells; conditions: Homo sapiens, 4 h, AlphaLISA, two to four hours at 37° C., read-out: pIC50 for Inhibition of mTORC1 and mTORC2 Substrate Phosphorylation, P-P70S6K-(T389) (converted)
# Method: (§1) Cell Based AlphaLISA Assays for Determining IC50 for Inhibition of P-Akt (S473), P-4E-BP1 (T37/46), and P-P70S6K (T389) in MDA-MB-468 Cells
# (§2) mTOR Kinase Cellular Assay
# (§3) To measure functional activity of mTORC1 and mTORC2 in cells the phosphorylation of 4EBP1 (Thr37/46) and P70S6K (Thr389), and AKT1/2/3 (Ser473) was monitored using AlphaLisa SureFire Ultra Kits (Perkin Elmer). […] Incubations were terminated by removal of the assay buffer and addition of lysis buffer provided with the assay kit. Samples were processed according to the manufacturer's instructions. The Alpha signal from the respective phosphoproteins was measured in duplicate using a microplate reader (Envision, Perkin-Elmer or Spectramax M5, Molecular Devices). Inhibitor concentration response curves were analyzed using normalized IC50 regression curve fitting with control based normalization.
# P-Akt (S473) = test: Cell based AlphaLISA assay, inhibition of P-Akt (S473) (mTORC2 substrate phosphorylation) in MDA-MB-468 cells; conditions: Homo sapiens, AlphaLISA, two to four hours at 37° C., read-out: pIC50 for Inhibition of mTORC1 and mTORC2 Substrate Phosphorylation, p-AKT 1/2/3 -(S473) (converted)
# Method: as §1, §2, §3
# P-4E-BP1 (T37/46) = test: Cell based AlphaLISA assay, inhibition of P-4E-BP1 (T37/46) (mTORC1 substrate phosphorylation) in MDA-MB-468 cells; conditions: Homo sapiens, AlphaLISA, two to four hours at 37° C., read-out: pIC50 for Inhibition of mTORC1 and mTORC2 Substrate Phosphorylation, P-4E-BP1-(T37/46) (converted)
# Method: as §1, §2, §3
SMILES,IC50 (P-P70S6K (T389)) [nM],"IC50 (P-Akt (S473); MDA-MB-468, 4 h) [nM]","IC50 (P-4E-BP1 (T37/46); MDA-MB-468, 4 h) [nM]",IC50 (P-Akt (S473); 4 h) [nM],IC50 (P-4E-BP1 (T37/46); 4 h) [nM]
CO[C@H]1C[C@@H]2CC[C@@H](C)[C@@](O)(O2)C(=O)C(=O)N2CCCC[C@H]2C(=O)O[C@H]([C@H](C)C[C@@H]2CC[C@H](n3nncc3-c3cccc(-c4cnc(N5CCN(S(=O)(=O)CCc6cn(CCOCCOCCC(=O)NCCCCn7nc(-c8ccc9oc(N)nc9c8)c8c(N)ncnc87)nn6)CC5)nc4)c3)[C@H](OC)C2)CC(=O)[C@H](C)/C=C(\C)[C@@H](O)[C@@H](OC)C(=O)[C@H](C)C[C@H](C)/C=C/C=C/C=C/1C [Example 36],< 1,3.16 to 31.6,3.16 to 31.6,,
CO[C@H]1C[C@@H]2CC[C@@H](C)[C@@](O)(O2)C(=O)C(=O)N2CCCC[C@H]2C(=O)O[C@H]([C@H](C)C[C@@H]2CC[C@H](n3nncc3-c3cccc(-c4cnc(N5CCN(S(=O)(=O)CCc6cn(CCOCCOCCOCCOCC(=O)NCCCCn7nc(-c8ccc9oc(N)nc9c8)c8c(N)ncnc87)nn6)CC5)nc4)c3)[C@H](OC)C2)CC(=O)[C@H](C)/C=C(\C)[C@@H](O)[C@@H](OC)C(=O)[C@H](C)C[C@H](C)/C=C/C=C/C=C/1C [Example 37],< 1,3.16 to 31.6,< 3.16,,
COC(=O)NC1C[C@@H]2CC[C@@H](C)[C@@](O)(O2)C(=O)C(=O)N2CCCC[C@H]2C(=O)O[C@H]([C@H](C)C[C@@H]2CC[C@@H](OCCCCc3cn(CCOCCOCCOCCOCCOCCOCCOCCOCCC(=O)NCCCCn4nc(-c5ccc6oc(N)nc6c5)c5c(N)ncnc54)nn3)[C@H](OC)C2)CC(=O)[C@H](C)/C=C(\C)[C@@H](O)[C@@H](OC)C(=O)[C@H](C)C[C@H](C)/C=C/C=C/C=C/1C (stereo partly drawn) [Example 38],1 to 10,31.6 to 1000,3.16 to 31.6,,
COC(=O)NC1C[C@@H]2CC[C@@H](C)[C@@](O)(O2)C(=O)C(=O)N2CCCC[C@H]2C(=O)O[C@H]([C@H](C)C[C@@H]2CC[C@@H](OCCCCc3cn(CCOCCOCCOCCOCCOCCOCCC(=O)NCCCCn4nc(-c5ccc6oc(N)nc6c5)c5c(N)ncnc54)nn3)[C@H](OC)C2)CC(=O)[C@H](C)/C=C(\C)[C@@H](O)[C@@H](OC)C(=O)[C@H](C)C[C@H](C)/C=C/C=C/C=C/1C (stereo partly drawn) [Example 39],1 to 10,31.6 to 1000,31.6 to 1000,,
CO[C@H]1C[C@@H]2CC[C@@H](C)[C@@](O)(O2)C(=O)C(=O)N2CCCC[C@H]2C(=O)O[C@H]([C@H](C)C[C@@H]2CC[C@@H](OCCCCc3cn(CCOCCOCCOCCOCCOCCOCCOCCOCCC(=O)NCCCCn4nc(-c5cccc(C(=O)NC6=NCCS6)c5)c5c(N)ncnc54)nn3)[C@H](OC)C2)CC(=O)[C@H](C)/C=C(\C)[C@@H](O)[C@@H](OC)C(=O)[C@H](C)C[C@H](C)/C=C/C=C/C=C/1C [Example 40],< 1,31.6 to 1000,< 3.16,,
CO[C@H]1C[C@@H]2CC[C@@H](C)[C@@](O)(O2)C(=O)C(=O)N2CCCC[C@H]2C(=O)O[C@H]([C@H](C)C[C@@H]2CC[C@@H](OCCCCc3cn(CCOCCOCCOCCOCCOCCOCCOCCOCCC(=O)NCCCCn4nc(-c5cc6cc(O)ccc6[nH]5)c5c(N)ncnc54)nn3)[C@H](OC)C2)CC(=O)[C@H](C)/C=C(\C)[C@@H](O)[C@@H](OC)C(=O)[C@H](C)C[C@H](C)/C=C/C=C/C=C/1C [Example 42],< 1,,,3.16 to 31.6,< 3.16
CO[C@H]1C[C@@H]2CC[C@@H](C)[C@@](O)(O2)C(=O)C(=O)N2CCCC[C@H]2C(=O)O[C@H]([C@H](C)C[C@@H]2CC[C@@H](OCCCCc3cn(CCOCCOCCOCCOCCOCCOCCC(=O)NCCCCn4nc(-c5cc6cc(O)ccc6[nH]5)c5c(N)ncnc54)nn3)[C@H](OC)C2)CC(=O)[C@H](C)/C=C(\C)[C@@H](O)[C@@H](OC)C(=O)[C@H](C)C[C@H](C)/C=C/C=C/C=C/1C [Example 43],< 1,,,31.6 to 1000,31.6 to 1000
COc1ccc(-c2ccc3ncc4c(c3c2)n(-c2ccc(N3CCN(C(=O)CCOCCOCCOCCOCCOCCOCCn5cc(CCCCO[C@@H]6CC[C@@H](C[C@@H](C)[C@@H]7CC(=O)[C@H](C)/C=C(\C)[C@@H](O)[C@@H](OC)C(=O)[C@H](C)C[C@H](C)/C=C/C=C/C=C(\C)[C@@H](OC)C[C@@H]8CC[C@@H](C)[C@@](O)(O8)C(=O)C(=O)N8CCCC[C@H]8C(=O)O7)C[C@H]6OC)nn5)CC3)c(C(F)(F)F)c2)c(=O)n4C)cn1 [Example 44],< 1,,,< 3.16,< 3.16
